SMILES strings stand for the structures.

Assay [1] relates to Uterine Eosinophil Peroxidase (EPO). Nature of the assay: Uterine Eosinophil Peroxidase (EPO) Assay in ovariectomized rats. It counts as in vivo, rat (female Sprague Dawley). Details: Uterine EPO (Vmax): unit not given here. The text has this: (§1) Seventy-five day old female Sprague Dawley rats (weight range of 200 to 225 g) were obtained from Charles River Laboratories (Portage, Mich.). The animals were either bilaterally ovariectomized (OVX) or exposed to a Sham surgical procedure at Charles River Laboratories, and then shipped after one week. Upon arrival, they were housed in metal hanging cages in groups of 3 or 4 per cage and had ad libitum access to food (calcium content approximately 0.5%) and water for one week. Room temperature was maintained at 22.2°±1.70° C. with a minimum relative humidity of 40%. The photoperiod in the room was 12 hours light and 12 hours dark.
(§2) After a one week acclimation period (therefore, two weeks post-OVX) daily dosing with test compound was initiated. […] Animals were dosed daily for 4 days. Following the dosing regimen, animals were weighed and anesthetized with a ketamine: Xylazine (2:1, V:V) mixture and a blood sample was collected by cardiac puncture. The animals were then sacrificed by asphyxiation with CO2, the uterus was removed through a midline incision, and a wet uterine weight was determined.
Uteri were kept at 4° C. until time of enzymatic analysis. The uteri were then homogenized in 50 volumes of 50 mM Tris buffer (pH-8.0) containing 0.005% Triton X-100. Upon addition of 0.01% hydrogen peroxide and 10 mM O-phenylenediamine (final concentrations) in Tris buffer, increase in absorbance was monitored for one minute at 450 nm. The presence of eosonophils in the uterus is an indication of estrogenic activity of a compound. The maximal velocity of a 15 second interval was determined over the initial, linear portion of the reaction curve.
As is expressed in the data below, estrogenicity also was assessed by evaluating the adverse response of eosinophil infiltration into the uterus.
(§3) The data presented in Table 1 below reflects the response of 5 to 6 rats per treatment.

Assay [2] deals with serum cholesterol, ovariectomized rats. Briefly: Serum cholesterol in ovariectomized rats (4 days daily oral dosing). In kind it is in vivo, rat (female Sprague Dawley). Conditions: Rattus norvegicus, 96 h, read-out: Serum Cholesterol (% decrease vs. OVX); for inhibition in vivo at 0.1 mg/kg: 0.1 mg/kg PO; for inhibition in vivo at 1 mg/kg: 1.0 mg/kg PO; for inhibition in vivo at 10 mg/kg: 10.0 mg/kg PO. The procedure:
(§4) In the examples illustrating the methods, a postmenopausal model was used in which effects of different treatments upon circulating lipids were determined.
as §1, §2
Blood samples were allowed to clot at room temperature for 2 hours, and serum was obtained following centrifugation for 10 minutes at 3000 rpm. Serum cholesterol was determined using a Boehringer Mannheim Diagnostics high performance cholesterol assay. Briefly the cholesterol was oxidized to cholest-4-en-3-one and hydrogen peroxide. The hydrogen peroxide was then reacted with phenol and 4-aminophenazone in the presence of peroxidase to produce a p-quinone imine dye, which was read spectrophotemetrically at 500 nm. Cholesterol concentration was then calculated against a standard curve. The entire assay was automated using a Biomek Automated Workstation. […]
as §3

The test system of assay [3] is Distal Femur Metaphysis, ovariectomized rats. Nature of the assay: Osteoporosis Test Procedure: distal femur metaphysis X-ray image analysis. To be noted: 35 days. It counts as in vivo, rat. On the procedure:
Following the General Preparation Procedure, infra, the rats were treated daily for 35 days (6 rats per treatment group) and sacrificed by carbon dioxide asphyxiation on the 36th day. The 35 day time period was sufficient to allow maximal reduction in bone density, measured as described herein. At the time of sacrifice, the uteri were removed, dissected free of extraneous tissue, and the fluid contents were expelled before determination of wet weight in order to confirm estrogen deficiency associated with complete ovariectomy. […] The uteri were then placed in 10% neutral buffered formalin to allow for subsequent histological analysis. The right femurs were excised and digitilized x-rays generated and analyzed by an image analysis program (NIH image) at the distal metaphysis. The proximal aspect of the tibiae from these animals were also scanned by quantitative computed tomography. […] Distal femur metaphysis and proximal tibiae data presented in Tables 2 and 3 below, respectively are the results of formula I compound treatments compared to intact and ovariectomized test animals. Results are reported as percent protection relative to ovariectomy.

The test system of assay [4] is uterus, ovariectomized rats. Briefly: Uterine weight in ovariectomized rats (4 days daily oral dosing). It counts as in vivo, rat (female Sprague Dawley). Conditions: Rattus norvegicus, 96 h, read-out: Uterine weight (% increase vs. OVX); for change in vivo at 0.1 mg/kg: 0.1 mg/kg PO; for change in vivo at 1 mg/kg: 1.0 mg/kg PO; for change in vivo at 10 mg/kg: 10.0 mg/kg PO. The procedure:
as §4, §1, §2
This uterine response to estrogen is well recognized in the art.
as §3

Assay [5] deals with MCF-7 breast adenocarcinoma cells. Briefly: MCF-7 Proliferation Assay (tritiated thymidine). It counts as cell-based. Conditions: Homo sapiens, MCF7, 48 hours, read-out: IC50. The procedure:
MCF-7 breast adenocarcinoma cells (ATCC HTB 22) were maintained in MEM (minimal essential medium, phenol red-free, Sigma, St. Louis, Mo.) supplimented with 10% fetal bovine serum (FBS) (V/V), L-glutamine (2 mM), sodium pyruvate (1 mM), HEPES {(N-[2-hydroxyethyl]piperazine-N'-[2-ethanesulfonic acid]10 mM}, non-essential amino acids and bovine insulin (1 ug/mL) (maintenance medium). Ten days prior to assay, MCF-7 cells were switched to maintenance medium supplemented with 10% dextran coated charcoal stripped fetal bovine serum (DCC-FBS) assay medium) in place of 10% FBS to deplete internal stores of steroids. MCF-7 cells were removed from maintenance flasks using cell dissociation medium (Ca++/Mg++ free HBSS (phenol red-free) supplemented with 10 mM HEPES and 2 mM EDTA). Cells were washed twice with assay medium and adjusted to 80,000 cells/mL. Approximately […] (8,000 cells) were added to flat-bottom microculture wells (Costar 3596) and incubated at 37° C. in a 5% CO2 humidified incubator for 48 hours to allow for cell adherence and equilibration after transfer. Serial dilutions of drugs or DMSO as a diluent control were prepared in assay medium and […] to triplicate microcultures followed by […] assay medium for a final volume of […]. After an additional 48 hours at 37° C. in a 5% CO2 humidified incubator, microcultures were pulsed with tritiated thymidine (1 uCi/well) for 4 hours. Cultures were terminated by freezing at -70° C. for 24 hours followed by thawing and harvesting of microcultures using a Skatron Semiautomatic Cell Harvester. Samples were counted by liquid scintillation using a Wallac BetaPlace b counter. Results in Table 4 below show the IC50 for certain compounds of the instant invention. […]

Take `O=C(c1ccc(OCCN2CCCCC2)cc1)c1c(-c2ccc(O)c(F)c2)sc2cc(O)ccc12` [Example 2, [2-(3-fluoro-4-hydroxyphenyl)-6-hydroxybenzo[b]thien-3-yl][4-[2-(1-piperidinyl)ethoxy]phenyl]methanone]: the “Uterine EPO (Vmax)” value in assay [1] (0.01 mg/kg PO) is on record as 4.8; in assay [1] (0.1 mg/kg PO), 4.8; in assay [1] (1.0 mg/kg PO), 4.8; in assay [1] (10.0 mg/kg PO), 3.6. In addition, the inhibition in vivo at 0.01 mg/kg in assay [2] (0.01 mg/kg PO) amounted to 21.7%. Also, the inhibition in vivo at 0.1 mg/kg in assay [2] was 48.1%. The inhibition in vivo at 1 mg/kg in assay [2] was 64.7%. Moreover, in assay [2], the inhibition in vivo at 10 mg/kg stood at 47.8%. Moreover, the “Distal Femur Metaphysis (X-ray Image Analysis-Gray Score), percent protection relative to ovariectomy” value is listed as 34.5% in assay [3] (0.01 mg/kg oral), 34.1% in assay [3] (0.1 mg/kg oral), 68.0% in assay [3] (1.0 mg/kg oral) and 70.0% in assay [3] (10.0 mg/kg oral). In assay [4] (0.01 mg/kg PO), the change in vivo at 0.01 mg/kg was 3.2%. Further, the change in vivo at 0.1 mg/kg in assay [4] was 53.3%. Also, the change in vivo at 1 mg/kg in assay [4] was determined as 53.7%. For the same compound, in assay [4], the change in vivo at 10 mg/kg stood at 25.9%. Further, the IC50 in assay [5] stood at 0.3 nM.
Regarding `Cc1cc(O)ccc1-c1sc2cc(O)ccc2c1C(=O)c1ccc(OCCN2CCCCC2)cc1` [Example 16, [2-(2-Methyl-4-hydroxyphenyl)-6-hydroxybenzo[b]thien-3-yl][4-[2-(1-piperidinyl)ethoxy]phenyl]methanone], the “Uterine EPO (Vmax)” value in assay [1] (0.1 mg/kg PO) is 8.1. Besides, the “Uterine EPO (Vmax)” value in assay [1] (1.0 mg/kg PO) is on record as 8.4. Further, the “Uterine EPO (Vmax)” value in assay [1] (10.0 mg/kg PO) amounted to 8.1. Also, in assay [2], the inhibition in vivo at 0.1 mg/kg came out at 39.2%, the inhibition in vivo at 1 mg/kg is 62.6% and the inhibition in vivo at 10 mg/kg is 68.5%. In assay [4], the change in vivo at 0.1 mg/kg is 54.5%, the change in vivo at 1 mg/kg was 53.7% and the change in vivo at 10 mg/kg is 62.7%. Also, the half-maximal inhibitory concentration (IC50) in assay [5] was determined as 2 nM.
On to `O=C(c1ccc(OCCN2CCCCC2)cc1)c1c(-c2ccccc2O)sc2cc(O)ccc12` [Example 10, [2-(2-Hydroxyphenyl)-6-hydroxybenzo[b]thien-3-yl][4-[2-(1-piperidinyl)ethoxy]phenyl]methanone], for which, in assay [1] (0.1 mg/kg PO), the “Uterine EPO (Vmax)” value is given as 2.8. In addition, the “Uterine EPO (Vmax)” value in assay [1] (1.0 mg/kg PO) is listed as 1.7. For the same compound, in assay [1] (10.0 mg/kg PO), the “Uterine EPO (Vmax)” value amounted to 3.7. In assay [2], the inhibition in vivo at 0.1 mg/kg is 7.8%, the inhibition in vivo at 1 mg/kg amounted to 19.5% and the inhibition in vivo at 10 mg/kg is 33.2%. In assay [4], the change in vivo at 0.1 mg/kg was -18.3%, the change in vivo at 1 mg/kg is -21% and the change in vivo at 10 mg/kg was determined as 10.6%. In assay [5], the IC50 came out at 10 nM.
Regarding `COc1ccc2c(C(=O)c3ccc(OCCN4CCCCC4)cc3)c(-c3cccc(F)c3)sc2c1` [Example 21, [2-(3-Fluorophenyl)-6-methoxybenzo[b]thien-3-yl] [4-[2-(1-piperidinyl)ethoxy]phenyl]methanone], in assay [1] (0.1 mg/kg PO), the “Uterine EPO (Vmax)” value is 4.5. Besides, the “Uterine EPO (Vmax)” value in assay [1] (1.0 mg/kg PO) stood at 4.8. Further, the “Uterine EPO (Vmax)” value in assay [1] (10.0 mg/kg PO) was determined as 7.5. Further, in assay [2], the inhibition in vivo at 0.1 mg/kg worked out at 1.4%, the inhibition in vivo at 1 mg/kg is -12% and the inhibition in vivo at 10 mg/kg was 60.5%. Moreover, in assay [4], the change in vivo at 0.1 mg/kg came out at 14.9%, the change in vivo at 1 mg/kg worked out at 4.1% and the change in vivo at 10 mg/kg was found to be 25.3%. In addition, the concentration for half-maximal inhibition (IC50) in assay [5] worked out at 500 nM.
With `Cc1cc(-c2sc3cc(O)ccc3c2C(=O)c2ccc(OCCN3CCCCC3)cc2)ccc1O` [Example 7, [2-(3-Methyl-4-hydroxyphenyl)-6-hydroxybenzo[b]thien-3-yl][4-[2-(1-piperidinyl)ethoxy]phenyl]methanone], the “Uterine EPO (Vmax)” value in assay [1] (0.1 mg/kg PO) is 4.9. Further, the “Uterine EPO (Vmax)” value in assay [1] (1.0 mg/kg PO) came to 2.5. Moreover, the “Uterine EPO (Vmax)” value in assay [1] (10.0 mg/kg PO) was 2.8. In assay [2], the inhibition in vivo at 0.1 mg/kg was 53.7%, the inhibition in vivo at 1 mg/kg was determined as 77.6% and the inhibition in vivo at 10 mg/kg is 49.7%. Besides, in assay [4], the change in vivo at 0.1 mg/kg came out at 7.6%, the change in vivo at 1 mg/kg amounted to 15.6% and the change in vivo at 10 mg/kg amounted to 24.6%. In addition, the IC50 in assay [5] is 1 nM.
For `COc1ccc(-c2sc3cc(OC)ccc3c2C(=O)c2ccc(OCCN3CCCCC3)cc2)c(OC)c1` [Example 17, [2-(2,4-Dimethoxyphenyl)-6-methoxybenzo[b]thien-3-yl] [4-[2-(1-piperidinyl)ethoxy]phenyl]methanone], in assay [1] (0.1 mg/kg PO), the “Uterine EPO (Vmax)” value stood at 20.4. The “Uterine EPO (Vmax)” value in assay [1] (1.0 mg/kg PO) is listed as 102.0. The “Uterine EPO (Vmax)” value in assay [1] (10.0 mg/kg PO) was determined as 20.1. For the same compound, in assay [2], the inhibition in vivo at 0.1 mg/kg turned out to be 51.4%, the inhibition in vivo at 1 mg/kg came to 68.5% and the inhibition in vivo at 10 mg/kg came out at 67.2%. In assay [4], the change in vivo at 0.1 mg/kg turned out to be 40.1%, the change in vivo at 1 mg/kg is 66.1% and the change in vivo at 10 mg/kg was found to be 53.7%. For the same compound, the IC50 in assay [5] is 300 nM.

Values taken from patent US5998442A, “Benzo [B] thiophene compounds, and compositions for treating bone loss, and hyperlipidemia” (Eli Lilly and Company, priority 1997, dated 1999).
